{"source": "ChEMBL document CHEMBL1221184", "about": "“Identifying off-target effects and hidden phenotypes of drugs in human cells” (Nat Chem Biol, 2006)", "key": {"[1]": {"target": "Cyclin-dependent kinase 1 (Homo sapiens) (UniProt P06493)", "sequence (P06493 whole entry, looked up, the tested form may be a part)": "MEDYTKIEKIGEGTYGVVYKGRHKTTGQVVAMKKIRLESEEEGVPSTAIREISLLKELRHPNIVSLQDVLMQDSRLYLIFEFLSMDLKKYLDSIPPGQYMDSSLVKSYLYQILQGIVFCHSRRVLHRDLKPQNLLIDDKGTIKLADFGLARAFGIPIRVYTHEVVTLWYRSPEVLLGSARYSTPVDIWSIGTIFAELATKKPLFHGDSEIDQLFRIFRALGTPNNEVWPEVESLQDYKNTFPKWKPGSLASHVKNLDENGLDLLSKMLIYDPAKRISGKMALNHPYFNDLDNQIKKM", "assay": "Effect on Cdc2 expressed in HEK293 cells assessed as effect on Cdc2:Cdc25C interaction complexes in presence of camptothecin by EYFP and/or YFP Venus fragment based reporter gene assay", "type": "cell-based"}, "[2]": {"target": "Cofilin-1 (Homo sapiens) (UniProt P23528)", "sequence (P23528 whole entry, the tested form may be a part)": "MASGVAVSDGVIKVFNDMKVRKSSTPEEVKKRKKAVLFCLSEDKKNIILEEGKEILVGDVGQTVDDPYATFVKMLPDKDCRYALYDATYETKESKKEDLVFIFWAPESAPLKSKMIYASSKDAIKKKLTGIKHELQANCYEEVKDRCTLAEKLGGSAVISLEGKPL", "assay": "Effect on cofilin1 expressed in HEK293 cells assessed as effect on cofilin1; Limk2 interaction complexes in presence of camptothecin by EYFP and/or YFP Venus fragment based reporter gene assay", "type": "cell-based"}, "[3]": {"target": "Cyclin-dependent kinase 1 (Homo sapiens) (UniProt P06493)", "assay": "Effect on Cdc2 expressed in HEK293 cells assessed as effect on Cdc2:Cdc25A interaction complexes in presence of camptothecin by EYFP and/or YFP Venus fragment based reporter gene assay", "type": "cell-based"}, "[4]": {"target": "Cyclin-dependent kinase 1 (Homo sapiens) (UniProt P06493)", "assay": "Inhibition of Cdc2 expressed in HEK293 cells assessed as effect on Cdc2:Cdc25C interaction complexes in presence of camptothecin by EYFP and/or YFP Venus fragment based reporter gene assay", "type": "cell-based"}, "[5]": {"target": "Transcription factor Jun (Homo sapiens) (UniProt P05412)", "sequence (P05412 whole entry)": "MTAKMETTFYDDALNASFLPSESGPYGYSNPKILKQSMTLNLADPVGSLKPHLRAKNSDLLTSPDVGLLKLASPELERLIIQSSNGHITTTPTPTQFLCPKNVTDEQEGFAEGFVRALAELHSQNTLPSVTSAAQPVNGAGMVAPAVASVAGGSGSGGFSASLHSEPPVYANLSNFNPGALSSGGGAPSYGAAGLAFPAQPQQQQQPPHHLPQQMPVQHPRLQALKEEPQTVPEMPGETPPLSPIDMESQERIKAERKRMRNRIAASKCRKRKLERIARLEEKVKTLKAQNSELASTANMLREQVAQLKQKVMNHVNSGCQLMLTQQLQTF", "assay": "Activation of c-Jun expressed in HEK293 cells assessed as induction of protein interaction with Pin1 by EYFP based reporter gene assay", "type": "cell-based"}, "[6]": {"system": "PC-3", "assay": "Antiproliferative activity against human PC3 cells at 30 uM after 120 hrs by MTT assay relative to DMSO", "type": "functional"}, "[7]": {"target": "Transcription factor Jun (Homo sapiens) (UniProt P05412)", "assay": "Inhibition of c-Jun expressed in HEK293 cells assessed as induction of protein interaction in presence of camptothecin with Pin1 by EYFP based reporter gene assay", "type": "cell-based"}, "[8]": {"system": "LoVo", "assay": "Antiproliferative activity against human LoVo cells after 120 hrs by MTT assay", "type": "functional, cell-based"}, "[9]": {"assay": "Antiproliferative activity against human U87MG cells after 120 hrs by MTT assay", "type": "functional, cell-based, U-87MG ATCC", "details": "U-87 MG"}, "[10]": {"system": "PC-3", "assay": "Antiproliferative activity against human PC3 cells after 120 hrs by MTT assay", "type": "functional, cell-based", "details": "PC-3, 120 h"}, "[11]": {"system": "A549", "assay": "Antiproliferative activity against human A549 cells after 120 hrs by MTT assay", "type": "functional, cell-based", "details": "A549, 120 h"}, "[12]": {"system": "PC-3", "assay": "Antiproliferative activity against human PC3 cells at 1 uM after 120 hrs by MTT assay relative to DMSO", "type": "functional"}, "[13]": {"system": "MIA PaCa-2", "assay": "Antiproliferative activity against human MIAPaCa2cells after 120 hrs by MTT assay", "type": "functional, cell-based", "details": "MIA PaCa-2, 120 h"}, "[14]": {"system": "PC-3", "assay": "Antiproliferative activity against human PC3 cells at 100 nM after 120 hrs by MTT assay relative to DMSO", "type": "functional"}, "[15]": {"system": "PC-3", "assay": "Antiproliferative activity against human PC3 cells at 15 uM after 120 hrs by MTT assay relative to DMSO", "type": "functional"}, "[16]": {"system": "PC-3", "assay": "Antiproliferative activity against human PC3 cells at 2.5 uM after 120 hrs by MTT assay relative to DMSO", "type": "functional"}, "[17]": {"system": "PC-3", "assay": "Antiproliferative activity against human PC3 cells at 200 nM after 120 hrs by MTT assay relative to DMSO", "type": "functional"}, "[18]": {"system": "PC-3", "assay": "Antiproliferative activity against human PC3 cells at 1.5 uM after 120 hrs by MTT assay relative to DMSO", "type": "functional"}, "[19]": {"system": "HEK293", "assay": "Inhibition of HSP90 expressed in HEK293 cells assessed as effect on Akt1:p27 interaction complexes by EYFP and/or YFP Venus fragment based reporter gene assay", "type": "cell-based"}, "[20]": {"system": "PC-3", "assay": "Antiproliferative activity against human PC3 cells at 50 ug/ml after 120 hrs by MTT assay relative to DMSO", "type": "functional"}, "[21]": {"system": "PC-3", "assay": "Antiproliferative activity against human PC3 cells at 250 nM after 120 hrs by MTT assay relative to DMSO", "type": "functional"}, "[22]": {"system": "HEK293", "assay": "Inhibition of proteasome expressed in HEK293 cells assessed as effect on p53-Chk1 interaction complexes by EYFP and/or YFP Venus fragment based reporter gene assay"}, "[23]": {"system": "HEK293", "assay": "Inhibition of proteasome expressed in HEK293 cells assessed as effect on Pin1-Jun interaction complexes by EYFP and/or YFP Venus fragment based reporter gene assay"}, "[24]": {"system": "HEK293", "assay": "Inhibition of proteasome expressed in HEK293 cells assessed as effect on E6:E6AP interaction complexes by EYFP and/or YFP Venus fragment based reporter gene assay"}, "[25]": {"target": "Cofilin-1 (Homo sapiens) (UniProt P23528)", "assay": "Effect on cofilin1 expressed in HEK293 cells assessed as effect on cofilin1; Limk2 interaction complexes by EYFP and/or YFP Venus fragment based reporter gene assay", "type": "cell-based"}, "[26]": {"system": "PC-3", "assay": "Antiproliferative activity against human PC3 cells at 25 uM after 120 hrs by MTT assay relative to DMSO", "type": "functional"}, "[27]": {"system": "HEK293", "assay": "Inhibition of proteasome expressed in HEK293 cells assessed as effect on p53-p53 interaction complexes by EYFP and/or YFP Venus fragment based reporter gene assay"}, "[28]": {"system": "HEK293", "assay": "Inhibition of proteasome expressed in HEK293 cells assessed as effect on CyclinD1-CDK4 interaction complexes by EYFP and/or YFP Venus fragment based reporter gene assay"}}, "note": "Activity calls are given as the source filed them. The rule behind the calls is not given here. Positions of bridges follow the written chain, without caps; N, C: chain ends. Non-standard residues stand in square brackets, D forms with d. Residues, ends and D or L forms follow the SMILES beside them. Nle = CCCC[C@H](N)C(=O)O", "data": [{"molecule": "CCOC(=O)C(C)(C)Oc1ccc(Cl)cc1", "note": "[CLOFIBRATE]", "values": [{"measurement": "Activity", "setting": "[1]", "result": "Active"}, {"measurement": "Activity", "setting": "[2]", "result": "Active"}, {"measurement": "Activity", "setting": "[3]", "result": "Active"}, {"measurement": "inhibition", "setting": "[4]", "result": "Active"}, {"measurement": "Activity", "setting": "[5]", "result": "Active"}, {"measurement": "fold change (FC)", "setting": "[6]", "result": 1.021}, {"measurement": "Activity", "setting": "[7]", "result": "Active"}]}, {"molecule": "O=C(Nc1ccc([N+](=O)[O-])cc1Cl)c1cc(Cl)ccc1O", "note": "[NICLOSAMIDE]", "values": [{"measurement": "IC50", "setting": "[8]", "result": 0.7, "unit": "µM"}, {"measurement": "IC50", "setting": "[9]", "result": 0.4, "unit": "µM"}, {"measurement": "IC50", "setting": "[10]", "result": 0.4, "unit": "µM"}, {"measurement": "IC50", "setting": "[11]", "result": 0.4, "unit": "µM"}, {"measurement": "fold change (FC)", "setting": "[12]", "result": 0.408}, {"measurement": "IC50", "setting": "[13]", "result": 1.1, "unit": "µM"}]}, {"molecule": "CC[C@H](C)[C@H](NC(=O)[C@@H](NC(=O)[C@H](CC(=O)O)NC(=O)[C@H](CCC(N)=O)NC(=O)[C@H](Cc1cnc[nH]1)NC(=O)[C@@H]1CSSC[C@H](N)C(=O)N[C@@H](CO)C(=O)N[C@H]2CSSC[C@H](NC(=O)[C@H](CCC(=O)O)NC(=O)[C@H](CCCCN)NC(=O)[C@H](CC(=O)O)NC(=O)[C@H]([C@@H](C)O)NC(=O)[C@H](CCSC)NC(=O)[C@H](CC(=O)O)NC(=O)[C@H](CCCCN)NC2=O)C(=O)N[C@@H](CC(C)C)C(=O)N[C@@H](Cc2ccc(O)cc2)C(=O)N[C@@H](Cc2ccccc2)C(=O)N1)C(C)C)C(=O)N[C@@H](Cc1c[nH]c2ccccc12)C(=O)O", "note": "(H-CSCKDMTDKECLYFCHQDVIW-OH; disulfide 1-15, 3-11)", "values": [{"measurement": "fold change (FC)", "setting": "[14]", "result": 1.037}]}, {"molecule": "CC1(COc2ccc(CC3SC(=O)NC3=O)cc2)CCCCC1", "note": "(stereo unspecified) [CIGLITAZONE]", "values": [{"measurement": "fold change (FC)", "setting": "[15]", "result": 0.934}]}, {"molecule": "CC(=O)O[C@H]1C(=O)[C@@]2(C)[C@H]([C@H](OC(=O)c3ccccc3)[C@]3(O)C[C@H](OC(=O)[C@H](O)[C@@H](NC(=O)c4ccccc4)c4ccccc4)C(C)=C1C3(C)C)[C@]1(OC(C)=O)CO[C@@H]1C[C@@H]2O", "note": "[PACLITAXEL]", "values": [{"measurement": "fold change (FC)", "setting": "[16]", "result": 0.281}]}, {"molecule": "Cn1c2ccccc2c2c3c(c4c5ccccc5n(CCC#N)c4c21)CNC3=O", "note": "[GO-6976]", "values": [{"measurement": "fold change (FC)", "setting": "[14]", "result": 1.119}]}, {"molecule": "COc1cc2ncnc(Nc3cccc(Br)c3)c2cc1OC", "values": [{"measurement": "fold change (FC)", "setting": "[17]", "result": 0.983}]}, {"molecule": "C=C1C[C@@H]2[C@H](CC[C@]3(C)C(=O)CC[C@@H]23)[C@@]2(C)C=CC(=O)C=C12", "note": "[EXEMESTANE]", "values": [{"measurement": "fold change (FC)", "setting": "[18]", "result": 0.975}]}, {"molecule": "COC1=C2C[C@@H](C)C[C@H](OC)[C@H](O)[C@@H](C)/C=C(\\C)[C@H](OC(N)=O)[C@@H](OC)/C=C\\C=C(/C)C(=O)NC(=CC1=O)C2=O", "note": "[GELDANAMYCIN]", "values": [{"measurement": "fold change (FC)", "setting": "[16]", "result": 0.261}, {"measurement": "inhibition", "setting": "[19]", "result": "Active"}]}, {"molecule": "C[C@H]1CCC/C=C/[C@@H]2C[C@H](O)C[C@H]2[C@H](O)/C=C/C(=O)O1", "note": "[BREFELDIN A]", "values": [{"measurement": "fold change (FC)", "setting": "[20]", "result": 0.245}]}, {"molecule": "COc1ccc(-n2nc(C(F)(F)F)cc2-c2ccc(Cl)cc2)cc1", "note": "[SC-560]", "values": [{"measurement": "fold change (FC)", "setting": "[21]", "result": 1.036}]}, {"molecule": "N#Cc1ccc(C(c2ccc(C#N)cc2)n2cncn2)cc1", "note": "[LETROZOLE]", "values": [{"measurement": "fold change (FC)", "setting": "[18]", "result": 1.001}]}, {"molecule": "CCCC[C@@H](C=O)NC(=O)[C@H](CC(C)C)NC(=O)[C@H](CC(C)C)NC(C)=O", "note": "(Ac-Leu-Leu-[Nle]-aldehyde)", "values": [{"measurement": "inhibition", "setting": "[22]", "result": "Active"}, {"measurement": "inhibition", "setting": "[23]", "result": "Active"}, {"measurement": "inhibition", "setting": "[24]", "result": "Active"}, {"measurement": "Activity", "setting": "[25]", "result": "Active"}, {"measurement": "fold change (FC)", "setting": "[26]", "result": 0.26}, {"measurement": "inhibition", "setting": "[27]", "result": "Active"}, {"measurement": "inhibition", "setting": "[28]", "result": "Active"}]}]}
